In patent publication US20130165625A1, “PEPTIDES INCORPORATING 3-AMINOADAMANTANE CARBOXYLIC ACIDS ENHANCE SYNAPTIC PLASTICITY AND ACT AS NEUROGENIC AGENTS” (JUSTUS-LIEBIG-UNIVERSITAT GIESSEN, priority 2010, published 2013):
Residues, ends and D or L forms follow the SMILES beside them.

How the values were obtained:
[1] = General examination: body weight and physical state during peptide treatment; format: in vivo, mice; settings: s.c. depot pellets 25 nmol/day for 35 days; for effect on body weight: FIG. 1A, female C57BI6 mice
Procedure: (§1) All in vivo studies for characterization of peptides (stereology and behavioral analysis) were performed on 8-10-month-old female retired breeders of C57BI6 background. Animals were acclimatized for at least 3 weeks to exclude occasional pregnant mice from the studies. Mice were group-housed (3 animals per cage) with a 12:12 hours light/dark cycle and with free access to food and water. All procedures were conducted in accordance with approved protocols from our institutional Animal Welfare Committee. For the peptide treatment, mice (8 animals/group) received subcutaneous implants of long term continuous release depot pellets containing Peptide021 or Peptide022 at 25 nmol/day for 35 days of continuous dosing (Innovative Research of America, Sarasota, Fla.). For the control group (8 animals), pellets consisted of the carrier polymer only. Mice were anesthetized with 2.5% Avertin (0.38 ml for a 25 g animal). Under sterile conditions, pellets were implanted subcutaneously along the anterolateral aspect of the right shoulder with a precision trochar (Innovative Research of America, Sarasota, Fla.). After recovery of anesthesia, animals were transferred to the animal colony. […] To investigate neurogenesis, BrdU (Sigma, St. Louis, Mo.) was given as two daily i.p. injections (100 mg/kg/dose) for five days starting on day 2 of peptides treatment.
The physical state and condition of animals were carefully monitored throughout the treatment by evaluating grooming, physical state and clasping reflex. Body weight was also recorded.

mice [2] = assay: Open field familiarization session (locomotor/exploratory activity and anxiety); format: in vivo; settings: for anxiety level of mice: FIG. 1B, time in centre of arena, first 5 minutes, s.c. pellets 25 nmol/day; for effect on exploratory activity: FIG. 1C, open field, s.c. pellets 25 nmol/day for 35 days
Procedure: as §1
In the one-trial object recognition task, animals are exposed to two different objects which they have to identify as novel or familiar based on the memory of an earlier experience with one of the two objects they encountered in the same open field. The familiar object is explored shorter than the novel encountered one because the representation of the former is still available in memory. The one-trial object recognition task tests some aspects of episodic memory but is limited to memory of an object (what), the location of an object (where), and the context in which is was encountered (which). However, the temporal dimension of the episode remains inaccessible to the experimentator, and because of this reason this task in animals is considered a test of short term memory (Ennaceur, 2010). The test used was an adaptation of the procedure previously described by Sargolini and collaborators (2003). The testing apparatus was a classic open field (i.e. a PVC square arena, 50×50 cm, with walls 40 cm high). The open field was placed in a part of the room separated from the experimentator with a black opaque curtain. The open field was surmounted by a video camera connected to a computer. Three objects were employed in this task. The general procedure consisted of three different phases: a familiarization phase (one session of 20 min), a sample phase, and a test phase. […] Object discrimination (OD) during the test phase was evaluated as […]

[3] = test system: BrdU-positive and BrdU/NeuN-double-positive cells in the dentate gyrus; assay: Neurogenesis in the dentate gyrus (BrdU / NeuN immunohistochemistry, unbiased stereology); format: in vivo, mice; settings: p<0.05, s.c. pellets 25 nmol/day
Procedure: as §1
At the end of the behavioral experiment, animals were anesthetized with an overdose of sodium pentobarbital (50 mg/kg) and transcardially perfused with 0.1 M phosphate buffered saline (PBS). After perfusion, the brains were removed from the skull, the left hemisphere was immediately frozen for future biochemical analysis and the right hemisphere was immersion fixed in 4% paraformaldehyde in 0.1 M PBS for at least 24 hours at room temperature. Tissues were equilibrated and stored in 30% sucrose solution at 4° C. until sectioning. The brains were sectioned sagittaly on a freezing sliding microtome at 40 μm through the entire hippocampus and the sections were stored in glycol anti-freeze solution (Ethylene glycol, glycerol and 0.1 M PBS in 3:3:4 ratio) at −20° C. until further processing. For double labeling of BrdU and NeuN, brain sections were pretreated with 2 M HCl at 37° C. for 30 min and neutralized with 0.1 M borate buffer (pH 8.5) for 10 minutes. Tissue sections were incubated first for 30 min with blocking buffer (4% normal goat serum +0.1% Tween-20 in PBS) and then overnight at 4° C. in the presence of BrdU (Millipore Corporation, Billerica, Mass.) and NeuN (Millipore Corporation) antibodies diluted 1:400 and 1:100, respectively. […] Neurogenesis in the dentate gyrus was evaluated by counting the number of BrdU-positive and BrdU/NeuN-double-positive cells in the dentate gyrus (DG). The number of positive cells was determined in every fifth section in a series of 40 μm sagittal sections throughout the DG using unbiased sterology (West et al., 1991). All BrdU-positive cells in the subgranular zone (SGZ) and granule cell layer (GCL) were counted using a fluorescent microscope (Nikon Eclipse 90i, Nikon Corporation, Japan). Double labeled cells were assessed by a confocal imaging system (D-Eclipse C1, Nikon Corporation). […] For each brain, at least 100 cells were counted based on coefficient of error determinations. […]

synaptophysin = assay: Expression of synaptophysin in DG (immunohistochemistry, mean optical density); format: in vivo, mice; settings: FIG. 3A; p<0.001; s.c. pellets 25 nmol/day
Procedure: (§2) All in vivo studies for characterization of peptides (stereology and behavioral analysis) were performed on 8-10-month-old female retired breeders of C57BI6 background. Animals were acclimatized for at least 3 weeks to exclude occasional pregnant mice from the studies. Mice were group-housed (3 animals per cage) with a 12:12 hours light/dark cycle and with free access to food and water. All procedures were conducted in accordance with approved protocols from our institutional Animal Welfare Committee. […]
(§3) At the end of the behavioral experiment, animals were anesthetized with an overdose of sodium pentobarbital (50 mg/kg) and transcardially perfused with 0.1 M phosphate buffered saline (PBS). […] Neurogenesis in the dentate gyrus was evaluated by counting the number of BrdU-positive and BrdU/NeuN-double-positive cells in the dentate gyrus (DG). The number of positive cells was determined in every fifth section in a series of 40 μm sagittal sections throughout the DG using unbiased sterology (West et al., 1991). All BrdU-positive cells in the subgranular zone (SGZ) and granule cell layer (GCL) were counted using a fluorescent microscope (Nikon Eclipse 90i, Nikon Corporation, Japan). Double labeled cells were assessed by a confocal imaging system (D-Eclipse C1, Nikon Corporation). […] For each brain, at least 100 cells were counted based on coefficient of error determinations. […]

mice [4] = assay: Spatial reference memory task in the water maze; format: in vivo; settings: for effect on swim speed: FIG. 1D, water maze, s.c. pellets 25 nmol/day for 35 days; for performance in the learning of spatial memory task in water maze: FIG. 1G, p<0.001, two-way ANOVA, s.c. pellets 25 nmol/day
Procedure: as §1
Spatial reference learning and memory were evaluated in the water maze using a procedure adapted from that previously described by Morris et al. (1982). The test required that mice used a spatial navigational strategy based on a spatial representation of the environment to find a fixed submerged escape platform. The procedure was performed in a 180 cm diameter circular tank. The pool was filled with water (21±1)° C. made opaque by adding white non-toxic paint. Acquisition started with the escape platform (15 cm diameter submerged 1 cm below water surface) in the Northwest quadrant and each animal was given 90 s to find the platform. […] At the end of each trial, the mouse was left on the platform for 20 s, then dried and returned to its home cage until the next trial. Five such acquisition trials were given on each day for four consecutive days. A test for retention, or probe trial (PT), was given 24 hours later. During the probe trial the mouse was allowed to swim in the tank without the escape platform for 60 seconds. This was followed by second and third probe trials 15 and 30 days after the first probe trial. The measures of learning were the time and distance covered to reach the escape platform. For the probe trial, the tank was divided into four imaginary quadrants and a small zone where the escape platform had been. The measures of retention were calculated index as the ratio of time spent or distance covered in target quadrant over them in the three other quadrants. Mouse behavior in the water maze was monitored by a Samsung Digital Camera (SDC 4304) mounted to the ceiling and tracked and timed by a SMART (Pan Lab/San Diego Instruments) version 2.0.14 software. Immunohistochemistry

synapsin I = assay: Expression of synapsin I in DG (immunohistochemistry, mean optical density); format: in vivo, mice; settings: FIG. 3B; p<0.001; s.c. pellets 25 nmol/day
Procedure: as §2, §3

mice [5] = assay: One-trial object recognition test; format: in vivo; settings: FIG. 1E-F; p<0.05, Student t-test; s.c. pellets 25 nmol/day
Procedure: All in vivo studies for characterization of peptides (stereology and behavioral analysis) were performed on 8-10-month-old female retired breeders of C57BI6 background. Animals were acclimatized for at least 3 weeks to exclude occasional pregnant mice from the studies. Mice were group-housed (3 animals per cage) with a 12:12 hours light/dark cycle and with free access to food and water. All procedures were conducted in accordance with approved protocols from our institutional Animal Welfare Committee. For the peptide treatment, mice (8 animals/group) received subcutaneous implants of long term continuous release depot pellets containing Peptide021 or Peptide022 at 25 nmol/day for 35 days of continuous dosing (Innovative Research of America, Sarasota, Fla.). For the control group (8 animals), pellets consisted of the carrier polymer only. Mice were anesthetized with 2.5% Avertin (0.38 ml for a 25 g animal). […]
In the one-trial object recognition task, animals are exposed to two different objects which they have to identify as novel or familiar based on the memory of an earlier experience with one of the two objects they encountered in the same open field. […] Object discrimination (OD) during the test phase was evaluated as […]

[6] = test system: LIF-induced STAT3 phosphorylation at Tyr705; assay: Analysis of STAT3 phosphorylation in HepG2 cells; format: cell-based, human; settings: FIG. 4, different peptide concentrations with 0.25 nM LIF for 15 min, Western blot
Procedure: To investigate the molecular mechanism of action of Peptide021 in LIF signaling, HepG2 human hepatoma cell (ATCC, Manassas, Va.) at 80% confluence were treated with different concentrations of Peptide021 and with 0.25 nM LIF (Chemicon International Inc., Temecula, Calif.) for 15 min. The cells were lysed and subjected to Western blots developed with antibodies anti-phospho-Tyr 705 STAT3 and anti-STAT3 (Cell signaling Technology, Danvers, Mass.).
HepG2 cells were treated with different concentrations of Peptide 021 together with 0.25 nM LIF for 15 min, and then the STAT3 phosphorylation at Tyr705 (pY-STAT3) was determined by Western blots. The pY-STAT3 value was normalized to total STAT3 expression. Data are presented as percentages of the value from cells treated with 0.25 nM LIF alone (100%). *p<0.01.

With `CC(=O)N[C@@H](CC(=O)O)C(=O)NCC(=O)NCC(=O)N[C@@H](CC(C)C)C(=O)N[C@]12CC3CC(C1)C[C@@](C(N)=O)(C3)C2` [Peptide 021, Ac-Asp-Gly-Gly-Leu-^AGly-NH2] (HELM PEPTIDE1{[ac].D.G.G.L.[NC(=O)[C@]12CC3CC(C[C@](N[*:1])(C3)C1)C2]}$$$$V2.0) the “effect on body weight” value [1] was “did not induce any effect”, the “complications associated with the implantation and treatment” value [1] was “No complications” and the “anxiety level of mice” value (mice [2]) was “reduced”. For the same compound, the “effect on exploratory activity” value (mice [2]) was “did not induce any effect”, the “numbers of BrdU positive cells in the GCL” value ([3]; FIG. 2B) was “significantly increased” and the “numbers of BrdU positive cells in the SGZ” value ([3]; FIG. 2B) was “significantly increased”. The “numbers of BrdU positive cells in the total DG” value ([3]; FIG. 2B) was “significantly increased”, the “number of BrdU/NeuN positive cells in the GCL” value ([3]; FIG. 2C) was “significantly increased” and the “number of BrdU/NeuN positive cells in the total DG” value ([3]; FIG. 2C) was “significantly increased”. The “expression of synaptophysin in the DG” value (synaptophysin) was “significantly promoted”, the “effect on swim speed” value (mice [4]) was “did not induce any effect” and the “performance in the learning of spatial memory task in water maze” value (mice [4]) was “increased performance”. For the same compound, the “effect in second probe trial (PT2)” value (mice [4]; FIG. 1H, after 15 days of the end of treatment) was “no longer effect”, the “effect in third probe trial (PT3)” value (mice [4]; FIG. 1H, after 30 days of the end of treatment) was “no longer effect” and the “performances in the first probe trial” value (mice [4]; FIG. 1H, probe trial 24 hours after acquisition, p<0.05) was “improved performances”. The “expression of synapsin I in the DG” value (synapsin I) was “significantly promoted”, the “ability to discriminate a new object versus a familiar object” value (mice [5]) was “significantly improved” and the “LIF-induced STAT3 phosphorylation (pY-STAT3 normalized to total STAT3)” value [6] was “Inhibition”.

With `CC(C)C[C@H](NC(=O)CNC(=O)CNC(=O)[C@H](CC(=O)O)NC(=O)C12CC3CC(CC(C3)C1)C2)C(=O)NC12CC3CC(C1)CC(C(N)=O)(C3)C2` [Peptide 022, 1-AdCO-DGGL^AG-NH2] (HELM PEPTIDE1{[O=C(C12CC3CC(CC(C3)C1)C2)[*:2]].D.G.G.L.[NC(=O)C12CC3CC(CC(N[*:1])(C3)C1)C2]}$$$$V2.0) the “effect on body weight” value [1] was “did not induce any effect”, the “complications associated with the implantation and treatment” value [1] was “No complications” and the “anxiety level of mice” value (mice [2]) was “reduced”. The “effect on exploratory activity” value (mice [2]) was “did not induce any effect”, the “effect on swim speed” value (mice [4]) was “did not induce any effect” and the “performance in the learning of spatial memory task in water maze” value (mice [4]) was “increased performance”.
